Entries after “also recorded” stand apart in the source; their conditions may differ. Read-outs that look alike come from different tables or passages of the source.
Assays:
[1] = system: HIV-1 strain RF in MT-4 cells; assay: Growth of HIV-1 RF in MT-4 cells; type: cell-based, HIV-1 (human MT-4 cells)
Text: (§1) When evaluated in the human T cell line JM acutely infected with the GB8 virus, DIDS, H2 DIDS and SITS (Table I) suppressed virus-induced multinucleated giant cell formation (syncytia). […] We also examined the antiviral properties of these compounds in a second host-cell/virus system, i.e., the highly CD4+ C8166 cells infected with the Haitian strain of HIV-1, RF.
(§2) The cell lines used were the semi-mature human lymphoblastoid leukemia T cell line JM, the human T-lymphoblastoid C8166 cell line, the human cutaneous T cell lymphoma line H9 and, the human T cell transformed line MT-4. Stocks of HIV-1 strains RF and GB8 (kindly provided by Dr. Graham Farrar, Center for Applied Microbiological Research, Porton Dawn, England) were prepared from chronically infected H9 cells and acutely infected JM cells, respectively. Virus stocks consisted of cell-free growth medium (RPMI 1640 plus 10% fetal calf serum) containing freshly shed virus. Virus titres were determined by a standard plaque reduction assay.

[2] = system: HIV-1 strain GB8 in JM cells; assay: Acute HIV-1 (GB8) infection of JM cells: syncytial counts and p24 antigen; type: cell-based, HIV-1 (human T cell line JM); details: for Mean Syncytial Counts: at day 4 p.i.; for inhibition of p24 viral core antigen / virus-induced multinucleated giant cell formation (syncytia): JM cells acutely infected with GB8; for order of antiviral potency: in all three host cell/virus systems (JM/GB8, C8166/RF, MT-4/RF)
Text: as §1, §2
Virus stocks (strains RF or GB8) were diluted into growth medium containing various concentrations of DIDS, H2 DIDS or SITS. The required number of cells were then immediately added and the virus allowed to absorb for 2 hours at 37° C. to give a multiplicity of infection (MOI) of 0.001 infectious units/cell. The virus-infected cells were pelleted, washed three times in phosphate buffered saline (PBS), and resuspended in fresh growth medium containing the appropriate concentrations of stilbene disulfonic acids. Cells were then distributed into 24-well culture plates (Falcon) and assayed as described below for virus infection. Alternatively, cells were first infected with HIV-1 (strains RF or GB8) for 2 hours at 37° C. at the above MOI. After extensive washing, cells were replated into fresh growth medium containing various concentrations of stilbene disulfonic acids. In the above experiments, syncytia were scored between 2 and 4 days postinfection (p.i.) in triplicate using an Olympus CK2 inverted microscope. The culture fluids were recovered between 3 and 5 days p.i., clarified by low speed centrifugation (2,000 rpm) for 5 minutes and the level of HIV-1 p24 core antigen in the supernatants was determined by p24 antigen ELISA (Coulter). The concentrations of stilbene disulfonic acids giving 50% inhibition of HIV-1 growth (IC50) were determined from the dose-response curves by linear regression analysis.
Protocol: JM cells were infected with HIV-1 to give a multiplicity of infection of 0.001. Virus adsorption was for 2 hours at room temperature. The cells were washed and distributed into wells containing different concentrations of test compounds and incubated. After 2 days the cells were observed and syncytia were counted. The cell-free supernatant fluids were harvested at 4 and 6 days post infection and assayed for levels of p24 viral core antigen and after 6 days the supernatants were also titrated to determine levels of infectivity.

[3] = system: virus-induced cell fusion (gp120-CD4 dependent); assay: Cell fusion after pretreatment of uninfected C8166 cells, washing and mixing with chronically infected H9 cells; type: cell-based, HIV-1; human H9 and C8166 cells; details: 100 μg/ml; overnight pretreatment, washed; 6 hour observation
Procedure: In the next experiments, CD4+ C8166 cells were pretreated overnight with either DIDS (100 μg/ml), SITS (100 μg/ml) or drug-free medium. Unabsorbed compounds were removed by repeated washings and chronically infected H9 cells were then added. […] Thus, cell washing prior to mixing with the H9 cells oblated the protective effect observed above (FIG. 1, Panel E) when 500,000 MW dextran sulfate was continually present in the assay.
Pretreatment of CD4+ C8166 cells with DIDS blocks fusion with chronically infected H9 cells. In this experiment, C8166 cells were pretreated overight with various stilbene disulfonic acids or drug-free medium (fusion control). The cells were washed, incubated with chronically infected H9 cells and syncytia were photographed at 6 hours post-mixing. Pretreatment conditions were as follows: […]: 100 μg/ml SITS; FIG. 2B: drug-free medium; and FIG. 2C: 100 μg/ml DIDS.
In pretreatment experiments, CD4^+ C8166 cells were maintained in serum-free medium (RPMI 1640 plus human transferrin 50 μg/ml, bovine insulin 20 μg/ml, bovine serum albumin 2 mg/ml) and were exposed to compound by overnight incubation. Treated cells were washed twice in fresh serum-free medium and then cocultured with chronically infected H9 cells in serum-free medium. Otherwise, cell numbers, assay conditions and scoring of syncytia were as described above.
Protocol: C8166 cells were pretreated for 2.5 hours with either DIDS, SITS or H2 DIDS (at 500 and 250 μg/ml). The cells were then washed three times and mixed with H9 cells chronically infected with HIV-1. Cell fusion was quantified after 4 and 24 hours.

[4] = Human immunodeficiency virus 1, 96 h, read-out: p24 4 days p.i., % Control
[5] = Human immunodeficiency virus 1, 96 h, 12.5 μg/ml, read-out: p24 4 days p.i., % Control
[6] = Human immunodeficiency virus 1, 96 h, 50 μg/ml, read-out: p24 4 days p.i., % Control
[7] = Human immunodeficiency virus 1, 96 h, 100 μg/ml, read-out: p24 4 days p.i., % Control
[8] = Human immunodeficiency virus 1, 144 h, read-out: P24 Antigen % Virus Control
[9] = Human immunodeficiency virus 1, 144 h, 12.5 μg/ml, read-out: p24 6 days p.i., % Control
[10] = Human immunodeficiency virus 1, 144 h, 25 μg/ml, read-out: p24 6 days p.i., % Control
[11] = Human immunodeficiency virus 1, 144 h, 50 µg/mL, GB8 in JM cells, day 6 p.i., read-out: P24 Antigen % Virus Control
[12] = Human immunodeficiency virus 1, 144 h, 50 μg/ml, read-out: p24 6 days p.i., % Control
[13] = Human immunodeficiency virus 1, 144 h, 100 µg/mL, GB8 in JM cells, day 6 p.i., read-out: P24 Antigen % Virus Control
[14] = Human immunodeficiency virus 1, 144 h, 100 μg/ml, read-out: p24 6 days p.i., % Control
[15] = Human immunodeficiency virus 1, 96 h, 25 μg/ml, read-out: p24 4 days p.i., % Control
[16] = Human immunodeficiency virus 1, 144 h, 25 µg/mL, GB8 in JM cells, day 6 p.i., read-out: P24 Antigen % Virus Control

CC(=O)Nc1ccc(C=Cc2ccc(N=C=S)cc2S(=O)(=O)O)c(S(=O)(=O)O)c1 [SITS, 4-acetamido-4'-isothiocyanatostilbene-2,2'-disulfonic acid]
growth of RF in MT-4 cells / antiviral activity [1]: weak antiviral activity | Mean Syncytial Counts 2 Days p.i. ([2]; 3 μg/ml): 93 | Mean Syncytial Counts ([2]; 6 μM): 93 | Mean Syncytial Counts 2 Days p.i. ([2]; 6 μg/ml): 72 | Mean Syncytial Counts ([2]; 12 μM): 72 | Mean Syncytial Counts 2 Days p.i. ([2]; 12.5 μg/ml): 63 | p24 4 days p.i. ([2]; 12.5 μg/ml): 185000 pg/mL | p24 6 days p.i. ([2]; 12.5 μg/ml): 1.51 × 10^6 pg/m. | Mean Syncytial Counts ([2]; 25 μM): 63 | Mean Syncytial Counts 2 Days p.i. ([2]; 25 μg/ml): 63 | p24 4 days p.i. ([2]; 25 μg/ml): 153000 pg/mL | p24 6 days p.i. ([2]; 25 μg/ml): 1.26 × 10^6 pg/m. | Mean Syncytial Counts ([2]; 50 μM): 63 | Mean Syncytial Counts 2 Days p.i. ([2]; 50 μg/ml): 15 | p24 4 days p.i. ([2]; 50 μg/ml): 62500 pg/mL | p24 6 days p.i. ([2]; 50 μg/ml): 2.45 × 10^5 pg/m. | Mean Syncytial Counts ([2]; 100 μM): 15 | Mean Syncytial Counts 2 Days p.i. ([2]; 100 μg/ml): 0 | p24 4 days p.i. ([2]; 100 μg/ml): 1140 pg/mL | p24 6 days p.i. ([2]; 100 μg/ml): 2.2 × 10^4 pg/m. | Mean Syncytial Counts ([2]; 200 μM): 0 | activity at 25 µg/mL [2, 4]: 100% | activity at 12.5 µg/mL [2, 5]: 100% | activity at 50 µg/mL [2, 6]: 85% | activity at 100 µg/mL [2, 7]: 1.6% | activity at 200 µM [2, 8]: 1.6% | activity at 12.5 µg/mL [2, 9]: 69% | activity at 25 µg/mL [2, 10]: 58% | activity at 50 µg/mL [2, 11]: 100% | activity at 50 µg/mL [2, 12]: 11.2% | activity at 100 µg/mL [2, 13]: 85% | activity at 100 µg/mL [2, 14]: 1% | inhibition of p24 viral core antigen [2]: dose-dependent inhibition | virus-induced multinucleated giant cell formation (syncytia) [2]: suppressed | order of antiviral potency [2]: DIDS>H2 DIDS>>SITS | syncytia / fusion after pretreatment [3]: failed to block syncytia

O=S(=O)(O)c1cc(N=C=S)ccc1C=Cc1ccc(N=C=S)cc1S(=O)(=O)O [DIDS, 4,4'-diisothiocyanatostilbene-2,2'-disulfonic acid]
growth of RF in MT-4 cells / antiviral activity [1]: blocked the growth of RF | Mean Syncytial Counts 2 Days p.i. ([2]; 3 μg/ml): 114 | Mean Syncytial Counts ([2]; 6 μM): 114 | Mean Syncytial Counts 2 Days p.i. ([2]; 6 μg/ml): 101 | Mean Syncytial Counts ([2]; 12 μM): 101 | Mean Syncytial Counts 2 Days p.i. ([2]; 12.5 μg/ml): 31 | p24 4 days p.i. ([2]; 12.5 μg/ml): 110000 pg/mL | p24 6 days p.i. ([2]; 12.5 μg/ml): 2.44 × 10^6 pg/m. | Mean Syncytial Counts ([2]; 25 μM): 31 | Mean Syncytial Counts 2 Days p.i. ([2]; 25 μg/ml): 0 | p24 4 days p.i. ([2]; 25 μg/ml): 4700 pg/mL | p24 6 days p.i. ([2]; 25 μg/ml): 1.21 × 10^6 pg/m. | Mean Syncytial Counts ([2]; 50 μM): 0 | Mean Syncytial Counts 2 Days p.i. ([2]; 50 μg/ml): 0 | p24 4 days p.i. ([2]; 50 μg/ml): 130 pg/mL | p24 6 days p.i. ([2]; 50 μg/ml): 1.23 × 10^4 pg/m. | Mean Syncytial Counts ([2]; 100 μM): 0 | Mean Syncytial Counts 2 Days p.i. ([2]; 100 μg/ml): 0 | p24 4 days p.i. ([2]; 100 μg/ml): None detected | p24 6 days p.i. ([2]; 100 μg/ml): 4.87 × 10^2 pg/m. | Mean Syncytial Counts ([2]; 200 μM): 0 | activity at 12.5 µg/mL [2, 5]: > 100% | activity at 25 µg/mL [2, 15]: 6.4% | activity at 50 µg/mL [2, 6]: 0.18% | activity at 100 µg/mL [2, 7]: 0% | activity at 200 µM [2, 8]: 0.02% | activity at 12.5 µg/mL [2, 9]: > 100% | activity at 25 µg/mL [2, 16]: 100% | activity at 25 µg/mL [2, 10]: 56% | activity at 50 µg/mL [2, 11]: 6.4% | activity at 50 µg/mL [2, 12]: 0.56% | activity at 100 µg/mL [2, 13]: 0.56% | activity at 100 µg/mL [2, 14]: 0.02% | inhibition of p24 viral core antigen [2]: dose-dependent inhibition | virus-induced multinucleated giant cell formation (syncytia) [2]: suppressed | order of antiviral potency [2]: DIDS>H2 DIDS>>SITS | syncytia / fusion after pretreatment [3]: remained syncytia-free; also recorded: blocks fusion

O=S(=O)(O)c1cc(N=C=S)ccc1CCc1ccc(N=C=S)cc1S(=O)(=O)O [H2 DIDS, 4,4'-diisothiocyanatodihydrostilbene-2,2'-disulfonic acid]
Mean Syncytial Counts 2 Days p.i. ([2]; 3 μg/ml): 107 | Mean Syncytial Counts ([2]; 6 μM): 107 | Mean Syncytial Counts 2 Days p.i. ([2]; 6 μg/ml): 97 | Mean Syncytial Counts ([2]; 12 μM): 97 | Mean Syncytial Counts 2 Days p.i. ([2]; 12.5 μg/ml): 71 | p24 4 days p.i. ([2]; 12.5 μg/ml): 94000 pg/mL | p24 6 days p.i. ([2]; 12.5 μg/ml): 8.51 × 10^6 pg/m. | Mean Syncytial Counts ([2]; 25 μM): 71 | Mean Syncytial Counts 2 Days p.i. ([2]; 25 μg/ml): 7 | p24 4 days p.i. ([2]; 25 μg/ml): 32000 pg/mL | p24 6 days p.i. ([2]; 25 μg/ml): 2.66 × 10^6 pg/m. | Mean Syncytial Counts ([2]; 50 μM): 7 | Mean Syncytial Counts 2 Days p.i. ([2]; 50 μg/ml): 0 | p24 4 days p.i. ([2]; 50 μg/ml): 70 pg/mL | p24 6 days p.i. ([2]; 50 μg/ml): 3.77 × 10^2 pg/m. | Mean Syncytial Counts ([2]; 100 μM): 0 | Mean Syncytial Counts 2 Days p.i. ([2]; 100 μg/ml): 0 | p24 6 days p.i. ([2]; 100 μg/ml): 6.48 × 10^2 pg/m. | Mean Syncytial Counts ([2]; 200 μM): 0 | activity at 50 µg/mL [2, 4]: 0.01% | activity at 12.5 µg/mL [2, 5]: > 100% | activity at 25 µg/mL [2, 15]: 43% | activity at 100 µg/mL [2, 7]: 0% | activity at 200 µM [2, 8]: 0% | activity at 12 µg/mL ([2]; Human immunodeficiency virus 1, 144 h, 12 µg/mL, GB8 in JM cells, day 6 p.i., read-out: P24 Antigen % Virus Control): 100% | activity at 12.5 µg/mL [2, 9]: > 100% | activity at 25 µg/mL [2, 16]: 100% | activity at 25 µg/mL [2, 10]: > 100% | activity at 50 µg/mL [2, 11]: 43% | activity at 50 µg/mL [2, 12]: 0.02% | activity at 100 µg/mL [2, 13]: 0.01% | activity at 100 µg/mL [2, 14]: 0.03%
